From patent US9890147B2 (BAYER PHARMA AKTIENGESELLSCHAFT, priority 2012, dated 2018)

Key:
[1] = molecular target: T1, BRD4 (BD1) (Homo sapiens, UniProt O60885); assay: Binding assay BRD4/acetylated peptide H4 (TR-FRET protein-protein interaction assay)
T1 construct: with relatively long constructs also being possible, preferably amino acids 44-168; made in house; host or cells: E. coli
In short: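 His6-BRD4 BD1 (aa 67-152, E. coli), usually 10 nM, with biotinylated tetra-acetylated H4 peptide in HEPES pH 7.5 buffer; 11 compound concentrations 0.1 nM–20 μM in duplicate, 10 min preincubation, 1 h at 22 °C then ≥3 h at 4 °C. TR-FRET 665/620 ratio; IC50 by 4-parameter fit.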

[2] = system: MOLM-13 cells; assay: Cell proliferation assay (alamarBlue), MOLM-13; assay type: cell-based; conditions: Homo sapiens, 96 hours incubation, inhibition of cell proliferation
In short: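 Cells in RPMI1640/10% FCS read by alamarBlue fluorescence (ex 530, em 590 nm) after overnight 37 °C incubation, then treated at 1E-5 to 1E-8 M for 96 h. Pre-treatment values subtracted from endpoint values and compared with buffer-only wells; IC50 is 50% proliferation inhibition.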

| SMILES | IC50 [1] | IC50 [2] |
| --- | --- | --- |
| CNC(=O)N1N=C(c2ccc(-c3c(C)noc3C)cc2)c2cc(OC)c(OC(F)F)cc2C[C@H]1C [Example 162.2, (4R)-7-(difluoromethoxy)-1-[4-(3,5-dimethylisoxazol-4-yl)phenyl]-8-methoxy-N,4-dimethyl-4,5-dihydro-3H-2,3-benzodiazepine-3-carboxamide] | 560 nM | 1680 nM |
| CNC(=O)N1N=C(c2ccc(N3CCN(C)CC3)cc2)c2cc(OC)c(OC(F)F)cc2C[C@H]1C [Example 163.1, (4R)-7-(difluoromethoxy)-8-methoxy-N,4-dimethyl-1-[4-(4-methylpiperazin-1-yl)phenyl]-4,5-dihydro-3H-2,3-benzodiazepine-3-carboxamide] | 8940 nM | 7080 nM |
| CNC(=O)N1N=C(c2ccc(-c3ccc(OC(F)(F)F)cc3)cc2)c2cc(OC)c(OC)cc2CC1C (racemic) [Example 95, (±)-7,8-dimethoxy-N,4-dimethyl-1-[4′-(trifluoromethoxy)biphenyl-4-yl]-4,5-dihydro-3H-2,3-benzodiazepine-3-carboxamide] | 630 nM | 2760 nM |
| CNC(=O)N1N=C(c2ccc(N3CCN(C)CC3=O)cc2)c2cc(OC)c(OC)cc2C[C@@H]1C [Example 43.1, (4S)-7,8-dimethoxy-N,4-dimethyl-1-[4-(4-methyl-2-oxopiperazin-1-yl)phenyl]-4,5-dihydro-3H-2,3-benzodiazepine-3-carboxamide] | 170 nM | 810 nM |
| CNC(=O)N1N=C(c2ccc(-n3cnnn3)cc2)c2cc(OC)ccc2C[C@@H]1C [Example 30, (4S)-8-Methoxy-N,4-dimethyl-1-[4-(1H-tetrazol-1-yl)phenyl]-4,5-dihydro-3H-2,3-benzodiazepine-3-carboxamide] | 230 nM | 790 nM |
| CNC(=O)N1N=C(c2ccc(-c3cnc(C)n3C)cc2)c2cc(OC)c(OC)cc2CC1C (racemic) [Example 47, (±)-1-[4-(1,2-dimethyl-1H-imidazol-5-yl)phenyl]-7,8-dimethoxy-N-dimethyl-4,5-dihydro-3H-2,3-benzodiazepine-3-carboxamide] | 110 nM | 530 nM |
| CNC(=O)N1N=C(c2ccc(-n3nc(C)nc3C)cc2)c2cc(OC)c(OC)cc2CC1C (racemic) [Example 154, (±)-1-[4-(3,5-dimethyl-1H-1,2,4-triazol-1-yl)phenyl]-7,8-dimethoxy-N,4-dimethyl-4,5-dihydro-3H-2,3-benzodiazepine-3-carboxamide] | 170 nM | 2080 nM |
| CNC(=O)N1N=C(c2ccc(N3CCN(C(C)=O)CC3)cc2)c2cc(OC)c(OC)cc2C[C@H]1C [Example 132.1, (4R)-1-[4-(4-acetylpiperazin-1-yl)phenyl]-7,8-dimethoxy-N,4-dimethyl-4,5-dihydro-3H-2,3-benzodiazepine-3-carboxamide] | 4080 nM | 7560 nM |
| CNC(=O)N1N=C(c2ccc(N3CCOCC3=O)cc2)c2cc(OC)c(OC)cc2CC1C (racemic) [Example 40, (±)-7,8-dimethoxy-N,4-dimethyl-1-[4-(3-oxomorpholin-4-yl)phenyl]-4,5-dihydro-3H-2,3-benzodiazepine-3-carboxamide] | 280 nM | 1470 nM |
| CNC(=O)N1N=C(c2ccc(N3CCN(Cc4ccccc4)CC3=O)cc2)c2cc(OC)c(OC)cc2CC1C (racemic) [Example 36, (±)-1-[4-(4-benzyl-2-oxopiperazin-1-yl)phenyl]-7,8-dimethoxy-N,4-dimethyl-4,5-dihydro-3H-2,3-benzodiazepine-3-carboxamide] | 260 nM | 1160 nM |
| CNC(=O)N1N=C(c2ccc(Cl)cc2)c2ccc(N3CCOC3=O)cc2CC1C (racemic) [Example 230, (±)-1-(4-chlorophenyl)-N,4-dimethyl-7-(2-oxo-1,3-oxazolidin-3-yl)-4,5-dihydro-3H-2,3-benzodiazepine-3-carboxamide] | 240 nM | 230 nM |
| CNC(=O)N1N=C(c2ccc(-n3nc(C4CC4)cc3-c3ccccn3)cc2)c2cc(OC)ccc2C[C@@H]1C [Example 29, (4S)-1-{4-[3-cyclopropyl-5-(pyridin-2-yl)-1H-pyrazol-1-yl]phenyl}-8-methoxy-N,4-dimethyl-4,5-dihydro-3H-2,3-benzodiazepine-3-carboxamide] | 130 nM | 360 nM |
| CNC(=O)N1N=C(c2ccc(-c3cccc(C(F)(F)F)c3)cc2)c2cc(OC)c(OC)cc2CC1C (racemic) [Example 85, (±)-7,8-dimethoxy-N,4-dimethyl-1-[3′-(trifluoromethyl)biphenyl-4-yl]-4,5-dihydro-3H-2,3-benzodiazepine-3-carboxamide] | 290 nM | 1080 nM |

Next, values leading:

| IC50 [1] | IC50 [2] | SMILES |
| --- | --- | --- |
| 70 nM | 620 nM | CNC(=O)N1N=C(c2ccc(-c3cccc([N+](=O)[O-])c3)cc2)c2cc(OC)c(OC)cc2CC1C (racemic) [Example 59, (±)-7,8-dimethoxy-N,4-dimethyl-1-(3′-nitrobiphenyl-4-yl)-4,5-dihydro-3H-2,3-benzodiazepine-3-carboxamide] |
| 70 nM | 1160 nM | CNC(=O)N1N=C(c2ccc(-c3ccnc(OC)c3)cc2)c2cc(OC)c(OC)cc2CC1C (racemic) [Example 125, (±)-7,8-dimethoxy-1-[4-(2-methoxypyridin-4-yl)phenyl]-N,4-dimethyl-4,5-dihydro-3H-2,3-benzodiazepine-3-carboxamide] |
| 50 nM | 560 nM | CNC(=O)N1N=C(c2ccc(-c3cncc(OC)c3)cc2)c2cc(OC)c(OC)cc2CC1C (racemic) [Example 80, (±)-7,8-dimethoxy-1-[4-(5-methoxypyridin-3-yl)phenyl]-N,4-dimethyl-4,5-dihydro-3H-2,3-benzodiazepine-3-carboxamide] |
| 60 nM | 490 nM | CNC(=O)N1N=C(c2ccc(N3CCNC(=O)C3)cc2)c2cc(OC)c(OC)cc2CC1C (racemic) [Example 137, (±)-7,8-dimethoxy-N,4-dimethyl-1-[4-(3-oxopiperazin-1-yl)phenyl]-4,5-dihydro-3H-2,3-benzodiazepine-3-carboxamide] |
| 20 nM | 230 nM | CNC(=O)N1N=C(c2ccc(-c3ccc(O)nc3)cc2)c2cc(OC)c(OC)cc2C[C@@H]1C [Example 49.1, (4S)-1-[4-(6-hydroxypyridin-3-yl)phenyl]-7,8-dimethoxy-N,4-dimethyl-4,5-dihydro-3H-2,3-benzodiazepine-3-carboxamide] |
| 110 nM | 170 nM | CNC(=O)N1N=C(c2ccc(N3CCN(C)CC3)c(C#N)c2)c2cc(OC)c(OC)cc2C[C@@H]1C [Example 254, (4S)-1-[3-Cyano-4-(4-methylpiperazin-1-yl)phenyl]-7,8-dimethoxy-N,4-dimethyl-4,5-dihydro-3H-2,3-benzodiazepine-3-carboxamide] |
| 30 nM | 100 nM | CNC(=O)N1N=C(c2ccc(N3CCC(O)CC3)cc2)c2cc(OC(F)(F)F)ccc2CC1C (racemic) [Example 251, (±)-1-[4-(4-hydroxy-1-piperidinyl)phenyl]-N,4-dimethyl-8-(trifluoromethoxy)-4,5-dihydro-3H-2,3-benzodiazepine-3-carboxamide] |
| 40 nM | 370 nM | CNC(=O)N1N=C(c2ccc(-c3ccc(C(=O)N4CCCC4)cc3)cc2)c2cc(OC)c(OC)cc2CC1C (racemic) [Example 78, (±)-7,8-dimethoxy-N,4-dimethyl-1-[4′-(pyrrolidin-1-ylcarbonyl)biphenyl-4-yl]-4,5-dihydro-3H-2,3-benzodiazepine-3-carboxamide] |
